# Source: patent publication US20170349533A1 (F.I.S.- FABBRICA ITALIANA SINTETICI S.P.A, priority 2014, published 2017)
# Values joined by “and” are separate entries in the source; they are usually repeats but may differ in a detail not shown here. Equal values may be shown once. “Also recorded” adds a separate entry of the source.
# Experiments:
# [1] = Kinetic solubility study at pH 4.5 (acetic acid/sodium acetate buffer, HPLC area); settings: for Encl. Citr. average / solubility at pH 4.5 compared with Enclomiphene citrate having non-needle crystals: pH 4.5
# Description: (§1) Solubility was determined by HPLC analysis, by comparison of the area corresponding to Enclomiphene HPLC peak.
# (§2) To carry out the solubility studies, 400 mg of each product (not grinded) was stirred in water (24 ml, 60v) under the same conditions of stirring speed (magnetic stirring at 1000 rpm with a 2 cm “rugby shape” stir bar), flask used (round bottom flask of 50 ml of capacity with a 29/32 neck), etc. Alliquotes of ca 6 ml of suspension were filtered at different times: 15, 45, 90 and 180 min. After filtration, mother liquors were directly analyzed by HPLC (doing 2 replicates for each analysis) and its pH was determined. The filtered solid was analyzed by XRPD. The solubility analysis was repeated for each product and comparison of solubility was determined by the differences of HPLC area.
# Solubility at a slightly acid medium was determined at pH 4.5 buffer used was a mixture acetic acid/sodium acetate prepared according to USP specifications.
# [2] = Hygroscopicity by DVS (Dynamic Vapour Sorption); assay type: physicochemical; settings: 25° C.; for water uptake at 95% RH: 0-95% RH
# Description: This is a gravimetric technique that measures how much water is absorbed or desorbed by a sample at different relative humidity (RH). At each RH, the sample mass must be allowed to reach gravimetric equilibrium (or surpassed time limit) before progressing to the next humidity level. Sorption and desorption isotherms will be performed at 25° C. over a range of 0-95% RH. The type of sorption isotherm is determined by the pore size and surface character of the material.
# [3] = Stability study of crystal habit by microscopy, three stability conditions for 30 days; assay type: physicochemical; settings: 30 days at 60% RH, 75% RH-40° C., 95% RH
# Excerpt: (B), and 95% RH (C), with reflected light (left) and transmitted light (right) (scale 500 μm).
# Microscopy analysis of Enclomiphene base having prismatic shaped crystal habit exposed to three stability conditions for 30 days indicated the same colorless transparent prism as the starting product.
# [4] = Flowability through a glass funnel (in-house method); assay type: physicochemical
# Description: Flowability was determined by an in-house method using a glass funnel (diameter 80 mm-stem diameter 10 mm-stem length 75 mm) with approximately 5 g of product repeating the process three times (in the cases in which flowability was observed). Different parameters were observed: • Flow or not • Need of percussion • Time to pass through the funnel
# [5] = Bulk and tapped density (in-house method, filled space of 500 mg in a test tube); assay type: physicochemical
# Description: Density was determined by an in-house method measuring the filled space by a sample of 500 mg in a test tube before and after hitting the tube (bulk and tapped density, respectively):
# The compressibility index calculated from bulk and tapped densities can be used to estimate the flow characteristics of the powder. Following the rule described in the article Chem Eng 1965; 72:163-168, it can be considered that the flow character should be: • Excellent for Enclomiphene base having prismatic shaped crystal habit, • Passable for Enclomiphene base having non-prismatic shaped crystal habit (of example 19).
# [6] = Particle size distribution by laser diffraction, wet dispersion; assay type: physicochemical
# Excerpt: Different techniques can be used in order to determine the population size distribution (Microscopy image analysis, sieving, sedimentation . . . ). However laser diffraction particle size analyzer using light scattering is one of the most widely used. It is worth noting that each technique is liable to generate a different mean diameter as well as measuring different properties of the particle. Therefore it is very important to indicate the used technique when a result of mean size is given.
# Particle size analysis by laser diffraction analyzer can be performed in wet or dry dispersion. However wet dispersion was selected because: • it allows to use only a small amount of sample, • it is recommended for fragile particles such as organic crystals.
# Particle size distribution was analyzed in a Beckman Coulter LS13320 apparatus equipped with an Universal Liquid Module.
# The particles have to be insoluble in the liquid used for the wet dispersion to avoid dissolution during the measurement.
# 40 mg of the sample were stirred in 25 ml of water and 3 drops of Triton X100 (to improve the wettability of the crystals and to avoid agglomeration during the analysis). If necessary, ultrasonic irradiation (bath 30 kHz and 200 W) was used for short time in order to break up any agglomerates or aggregates.
# [7] = Filterability of suspension in ethanol; assay type: physicochemical; settings: 40 mL of suspension in ethanol, on paper over a Buckner
# Description: Enclomiphene having prismatic shaped crystal habit is indeed very well filterable, since, for example, the filtration (on paper over a Buckner) of 40 mL of suspensions containing of said solid in ethanol takes only 10 seconds.
# [8] = Kinetic solubility study in water (HPLC area of Enclomiphene peak)
# Description: as §1
# For each solubility study, the following parameters were monitored: • intensity of Enclomiphene peak for each replicate of the assay • average value • standard deviation.
# as §2
# Below an HPLC method that allow to have a fast determination of Enclomiphene solubility:
# These HPLC conditions were used to perform solubility analysis.
# [9] = first run (example 19: with constant percussion)
# [10] = first run, approx. 5 g, glass funnel
# [11] = water + Triton X100, without sonication, listed as Enclomiphene having prismatic shaped crystal habit
# [12] = water + Triton X100, without sonication, listed as Sample 724
# [13] = water + Triton X100, without sonication, listed as batch 724
# [14] = water + Triton X100, without sonication, listed as Sample 725
# [15] = water + Triton X100, without sonication, listed as batch 725
smiles,measurement,setting,value
CCN(CC)CCOc1ccc(/C(=C(/Cl)c2ccccc2)c2ccccc2)cc1 [Enclomiphene acetate],Encl. Citr. average,[1]; 0 min,0 HPLC area
same,Encl. Citr. average,[1]; 15 min,14069 HPLC area
same,Encl. Citr. average,[1]; 45 min,13771 HPLC area
same,Encl. Citr. average,[1]; 90 min,13708 HPLC area
same,Encl. Citr. average,[1]; 180 min,13196 HPLC area
"CCN(CC)CCOc1ccc(/C(=C(/Cl)c2ccccc2)c2ccccc2)cc1 [Enclomiphene base (example 18), Enclomiphene]",hygroscopicity (in words),[2]; whole range 0-95% RH,not hygroscopic
same,stability of crystal habit,[3],remains stable at least one month
same,Percussion needed?,[4]; first run,Yes
same,time to pass through the funnel,[4]; [9],15 s
same,Flow?,[4]; [10],Yes
same,flow through the funnel,[4]; listed as Enclomiphene having prismatic shaped crystal habit,flowed through the funnel
same,Flow?,[4]; second run,Yes
same,Percussion needed?,[4]; second run,Yes
same,time to pass through the funnel,[4]; second run,12 s
same,Flow?,[4]; third run,Yes
same,Percussion needed?,[4]; third run,yes
same,time to pass through the funnel,[4]; third run,14 s
same,time to pass through the funnel,"[4]; with percussion, listed as Enclomiphene having prismatic shaped crystal habit",10 s
same,filled space of 500 mg in test tube,"[5]; filled space of 500 mg in a test tube after hitting the tube, listed as Enclomiphene (example 18)",8 mm
same,filled space of 500 mg in test tube,"[5]; filled space of 500 mg in a test tube after hitting the tube, listed as Enclomiphene base having prismatic crystal habit",8 mm
same,filled space of 500 mg in test tube,"[5]; filled space of 500 mg in a test tube before hitting the tube, listed as Enclomiphene (example 18)",8 mm
same,filled space of 500 mg in test tube,"[5]; filled space of 500 mg in a test tube before hitting the tube, listed as Enclomiphene base having prismatic crystal habit",8 mm
same,Reduced space (bulk vs tapped),[5]; listed as Enclomiphene (example 18),0%
same,PSD D10,[6]; [11],80 μm
same,PSD D90,[6]; [11],770 μm
same,PSD D10,[6]; [12],81.89 μm
same,PSD D90,[6]; [12],770 μm
same,PSD Mean,[6]; [12],374.3 μm
same,PSD Median (D50),[6]; [12],306.4 μm
same,PSD Mode,[6]; [12],356.1 μm
same,PSD Mean,[6]; [13],374.3 μm
same,PSD Median (D50),[6]; [13],306.54 μm
same,filtration time,[7],10 s
"CCN(CC)CCOc1ccc(/C(=C(/Cl)c2ccccc2)c2ccccc2)cc1 [Enclomiphene base (example 19), Enclomiphene]",Percussion needed?,[4]; first run,Yes (if constant)
same,time to pass through the funnel,[4]; [9],130 s
same,Flow?,[4]; [10],No (static
same,flow through the funnel,[4]; listed as Enclomiphene having non-prismatic shaped crystal habit,did not flow
same,time to pass through the funnel,"[4]; with percussion, listed as Enclomiphene having non-prismatic shaped crystal habit",130 s
same,filled space of 500 mg in test tube,"[5]; filled space of 500 mg in a test tube after hitting the tube, listed as Enclomiphene (example 19)",13 mm
same,filled space of 500 mg in test tube,"[5]; filled space of 500 mg in a test tube after hitting the tube, listed as Enclomiphene base having non-prismatic crystal habit",13 mm
same,filled space of 500 mg in test tube,"[5]; filled space of 500 mg in a test tube before hitting the tube, listed as Enclomiphene (example 19)",17 mm
same,filled space of 500 mg in test tube,"[5]; filled space of 500 mg in a test tube before hitting the tube, listed as Enclomiphene having non-prismatic crystal habit",24 mm
same,Reduced space (bulk vs tapped),[5]; listed as Enclomiphene (example 19),24%
same,PSD D10,[6]; 10 sec sonication,0.100 μm
same,PSD D90,[6]; 10 sec sonication,1.942 μm
same,PSD Mean,[6]; 10 sec sonication,0.715 μm
same,PSD Median (D50),[6]; 10 sec sonication,0.284 μm
same,PSD Mode,[6]; 10 sec sonication,1.748 μm
same,PSD D10,[6]; [14],5.819 μm
same,PSD D90,[6]; [14],90.47 μm
same,PSD Mean,[6]; [14],36.79 μm
same,PSD Median (D50),[6]; [14],24.96 μm
same,PSD Mode,[6]; [14],26.14 μm
same,PSD Mean,[6]; [15],36.79 μm
same,PSD Median (D50),[6]; [15],24.96 μm
"CCN(CC)CCOc1ccc(/C(=C(/Cl)c2ccccc2)c2ccccc2)cc1 [Enclomiphene base, Enclomiphene]",solubility in water (in words),[8],highly insoluble
CCN(CC)CCOc1ccc(/C(=C(/Cl)c2ccccc2)c2ccccc2)cc1.O=C(O)CC(O)(CC(=O)O)C(=O)O [Enclomiphene citrate having needle crystals],solubility in water compared with Enclomiphene citrate having non-needle shaped crystal habit,"[8]; water, listed as Enclomiphene citrate having needle shaped crystal habit",almost double; also recorded: almost two times
same,solubility at pH 4.5 compared with Enclomiphene citrate having non-needle crystals,[1],4 to 5 times
same,solubility at pH 4.5 compared with Enclomiphene citrate having non-needle crystals,[1]; listed as Enclomiphene citrate having needle shaped crystal habit,four times higher
same,Average a/a,"[1]; pH = 4.5, 0 min",0 a/a
same,Average a/a,"[1]; pH = 4.5, 15 min",4135 a/a
same,Average a/a,"[1]; pH = 4.5, 45 min",4024 a/a
same,Average a/a,"[1]; pH = 4.5, 90 min",5109 a/a
same,Average a/a,"[1]; pH = 4.5, 180 min",5079 a/a
same,water uptake at 95% RH,[2]; listed as batch 723,2.33 % weight and 2.3 % weight
CCN(CC)CCOc1ccc(/C(=C(/Cl)c2ccccc2)c2ccccc2)cc1.O=C(O)CC(O)(CC(=O)O)C(=O)O [Enclomiphene citrate having non-needle crystals] [trans-Clomiphene monocitrate],Average a/a,"[1]; pH = 4.5, 0 min",0 a/a
same,Average a/a,"[1]; pH = 4.5, 15 min",1185 a/a
same,Average a/a,"[1]; pH = 4.5, 45 min",924 a/a
same,Average a/a,"[1]; pH = 4.5, 90 min",1095 a/a
same,Average a/a,"[1]; pH = 4.5, 180 min",1052 a/a
same,moisture sorption between 0% and 65% RH,[2]; 0-65% RH,2 % weight
same,water uptake at 95% RH,[2]; listed as batch 722,6 % weight
